Results reported in patent US6455570B1, “Polypyrrolinone based inhibitors of matrix metalloproteases” (The Trustees of the University of Pennsylvania, priority 2000, dated 2002).

Tests used:
Type in all cases: biochemical
[1] = molecular target: T1, matrilysin (MMP-7) (Homo sapiens, UniProt P09237); assay: metalloprotease activity assay by a published procedure (J. Duan, WO/0059285), matrilysin; conditions: read-out: Ki, inhibitory activity against matrilysin (MMP-7)
T1 sequence (P09237 95-267): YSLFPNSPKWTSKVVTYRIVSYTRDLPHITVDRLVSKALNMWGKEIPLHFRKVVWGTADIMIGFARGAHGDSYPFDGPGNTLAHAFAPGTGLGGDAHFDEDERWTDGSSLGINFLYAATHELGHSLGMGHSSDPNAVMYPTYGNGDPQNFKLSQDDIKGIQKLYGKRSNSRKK
Procedure: (§1) Compounds of the present invention were assayed for metalloprotease activity by a published procedure (see, for example, J. Duan, WO/0059285). […] (Whittaker, M. et al. Chem. Rev. 1999 99:2735; Borkakoti, N. et al. Struct. Biol. 1994 1:106)

[2] = molecular target: membrane type 2 matrix metalloprotease (MMP-15) (Homo sapiens, UniProt P51511); assay: metalloprotease activity assay by a published procedure (J. Duan, WO/0059285), membrane type 2 MMP; conditions: read-out: Ki, inhibitory activity against membrane type 2 matrix metalloprotease (MMP-15)
membrane type 2 matrix metalloprotease (MMP-15), sequence (P51511 132-669, species assumed): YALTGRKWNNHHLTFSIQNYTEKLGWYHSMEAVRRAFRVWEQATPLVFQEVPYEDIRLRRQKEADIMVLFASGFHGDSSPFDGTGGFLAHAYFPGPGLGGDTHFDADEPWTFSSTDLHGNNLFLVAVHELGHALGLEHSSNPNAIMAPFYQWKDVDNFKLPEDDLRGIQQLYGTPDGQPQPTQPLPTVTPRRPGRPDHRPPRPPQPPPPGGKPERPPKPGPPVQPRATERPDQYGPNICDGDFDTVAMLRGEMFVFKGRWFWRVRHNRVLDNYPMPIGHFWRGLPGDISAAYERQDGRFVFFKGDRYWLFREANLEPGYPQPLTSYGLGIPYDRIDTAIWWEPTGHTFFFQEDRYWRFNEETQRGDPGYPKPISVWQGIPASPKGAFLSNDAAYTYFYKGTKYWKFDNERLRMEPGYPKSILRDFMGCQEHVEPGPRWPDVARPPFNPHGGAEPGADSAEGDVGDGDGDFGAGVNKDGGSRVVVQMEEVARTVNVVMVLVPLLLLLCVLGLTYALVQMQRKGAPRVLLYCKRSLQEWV
Procedure: as §1

[3] = molecular target: T2, gelatinase (MMP-2) (Homo sapiens, UniProt P08253); assay: metalloprotease activity assay by a published procedure (J. Duan, WO/0059285), gelatinase; conditions: read-out: Ki, inhibitory activity against gelatinase (MMP-2)
T2 sequence (P08253 110-660): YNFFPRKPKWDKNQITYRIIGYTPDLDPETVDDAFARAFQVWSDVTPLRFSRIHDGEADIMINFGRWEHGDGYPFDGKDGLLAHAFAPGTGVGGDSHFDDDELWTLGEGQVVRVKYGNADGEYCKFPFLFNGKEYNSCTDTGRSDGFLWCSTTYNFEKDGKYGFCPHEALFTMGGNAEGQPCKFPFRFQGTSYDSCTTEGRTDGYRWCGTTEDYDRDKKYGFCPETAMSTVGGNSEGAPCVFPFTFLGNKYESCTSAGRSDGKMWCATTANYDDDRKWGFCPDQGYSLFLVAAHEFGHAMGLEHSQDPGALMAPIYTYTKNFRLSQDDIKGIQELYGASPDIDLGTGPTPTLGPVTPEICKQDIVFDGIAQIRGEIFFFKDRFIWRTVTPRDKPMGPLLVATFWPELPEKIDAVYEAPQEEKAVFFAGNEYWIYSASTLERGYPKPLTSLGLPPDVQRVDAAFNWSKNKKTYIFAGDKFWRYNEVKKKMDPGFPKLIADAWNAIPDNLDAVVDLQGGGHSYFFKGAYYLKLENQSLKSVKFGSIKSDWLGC
Procedure: as §1

- Ki [1]: 6.4 µM
- Ki [2]: 6.8 µM
- Ki [3]: 2.9 µM
SMILES: CCOC(=O)C(C)C1=CNC(CC(C)C)(C2=CNC(CC(=O)NO)(CC(C)C)C2=O)C1=O (single isomer, unassigned; (-)) [(−)-1a, Bispyrrolinone Hydroxamic Acid]
